How the values were obtained:
M. furfur [1] = assay: Anti-dandruff efficacy, zone of inhibition; type: cell-based, Malassezia furfur
From the text: Comparison of Anti-Dandruff Efficacy Against M. furfur

M. furfur [2] = assay: Time kill method (ASTM E 2315-16); type: cell-based, Malassezia furfur; details: 1% AI
From the text: Time Kill Method (at 1% AI) Against Test Organism M. furfur.

Staph. aureus = assay: MIC by Tube/Plate dilution method; type: cell-based
Method: (§1) The minimum inhibitory concentration (MIC) of an antibacterial is the maximum dilution of the product that will still inhibit the growth of a test microorganism. In Tube/Plate dilution method, serial dilutions of the products are made in bacterial growth media, incubated, and scored for growth. It was determined by Tube/Plate method.

Candida albicans = assay: MIC by Tube/Plate dilution method; type: cell-based
Method: as §1

Escherichia coli = assay: MIC by Tube/Plate dilution method; type: cell-based
Method: as §1

Ps. aeruginosa = assay: MIC by Tube/Plate dilution method; type: cell-based
Method: as §1

[3] = system: gm +ve and gm −ye micro-organism; assay: Antibacterial efficacy by MIC, overall conclusion; type: cell-based
Method: as §1

From the text for zein (corn protein): The Zein test enables to determine the irritation potential (harshness) of a surfactant-based product (shower gel, shampoo, soap, washing-up liquid, etc.). It consists in making soluble a yellow corn protein that is similar to the keratin present in the skin and hair. The irritation potential of the product is directly proportional to the quantity of dissolved proteins. The Zein Test provides a rapid and convenient screen for irritation potential, especially for compositions that contain surface active agents.
This method involves measuring the solubility of zein (corn protein) in cleansing base solutions as follows.
To 40 mL of samples, 2 f 0.05 g of zein from corn was added. The solutions with zein were shaken in a shaker with water bath (60 min. at 35° C.). The solutions were filtered on Whatman No. 1 filters and then centrifuged at 5000 rpm for 10 min. The nitrogen content in the solutions was determined by Kjeldahl method. One millilitre of the filtrate was mineralized in sulfuric acid (98%) containing copper sulphate pentahydrate and potassium sulphate. After mineralization, the solution was transferred (with 50 mL of Milli-Q water) into the flask of the Wagner-Parnas apparatus. In the next step, 20 mL of sodium hydroxide (25 wt. %) was added. The released ammonia was distilled with steam. […]
The zein number (ZN) was calculated from the equation: ZN=(10−V1)·100·0.7 [mg N/100 mL] […]

Compound: C=CCCCCCCCCC(=O)NCCC[N+](C)(C)CC(O)COP(=O)([O-])OCC(O)C[N+](C)(C)CCCNC(=O)CCCCCCCCC=C.[Cl-] (stereo not drawn) [UDAP PB, Undecylenamidopropyl PG-Dimonium Chloride Phosphate]
- Comments (zone of inhibition) (M. furfur [1]; Active Conc. 1%): Effective
- Zone of Inhibition (ZOI) (M. furfur [1]; Active Conc. 1%): 28 mm
- Comments (zone of inhibition) (M. furfur [1]; Active Conc. 2%): Effective
- Zone of Inhibition (ZOI) (M. furfur [1]; Active Conc. 2%): 33 mm
- Antimicrobial Activity Log Reduction (M. furfur [2]; exposure time 1 minute): >4.19 Log
- Antimicrobial Activity Percentage reduction (M. furfur [2]; exposure time 1 minute): >99.99%
- Count of Test Organism After Exposure CFU/ml (M. furfur [2]; exposure time 1 minute): <10 CFU/ml
- Count of Test Organism After Exposure Log (M. furfur [2]; exposure time 1 minute): <1 Log
- Antimicrobial Activity Log Reduction (M. furfur [2]; exposure time 5 minutes): >4.19 Log
- Antimicrobial Activity Percentage reduction (M. furfur [2]; exposure time 5 minutes): >99.99%
- Count of Test Organism After Exposure CFU/ml (M. furfur [2]; exposure time 5 minutes): <10 CFU/ml
- Count of Test Organism After Exposure Log (M. furfur [2]; exposure time 5 minutes): <1 Log
- Zein Number (ZN) (zein (corn protein)): 36 mg N/100 mL
- MIC (Staph. aureus): <300 ppm
- MIC (Candida albicans): <200 ppm
- MIC (Escherichia coli): <300 ppm
- MIC (Ps. aeruginosa): <700 ppm
- Antibacterial efficacy [3]: effective antibacterial

Compound: zinc pyrithione [ZnPTO, reference compound]
- Comments (zone of inhibition) (M. furfur [1]; Active Conc. 1%): Effective
- Zone of Inhibition (ZOI) (M. furfur [1]; Active Conc. 1%): 34 mm
- Comments (zone of inhibition) (M. furfur [1]; Active Conc. 2%): Effective
- Zone of Inhibition (ZOI) (M. furfur [1]; Active Conc. 2%): 41 mm
- Antimicrobial Activity Log Reduction (M. furfur [2]; exposure time 1 minute): >3.95 Log
- Antimicrobial Activity Percentage reduction (M. furfur [2]; exposure time 1 minute): >99.98%
- Count of Test Organism After Exposure CFU/ml (M. furfur [2]; exposure time 1 minute): <10 CFU/ml
- Count of Test Organism After Exposure Log (M. furfur [2]; exposure time 1 minute): <1 Log
- Antimicrobial Activity Log Reduction (M. furfur [2]; exposure time 5 minutes): >3.95 Log
- Antimicrobial Activity Percentage reduction (M. furfur [2]; exposure time 5 minutes): >99.98%
- Count of Test Organism After Exposure CFU/ml (M. furfur [2]; exposure time 5 minutes): <10 CFU/ml
- Count of Test Organism After Exposure Log (M. furfur [2]; exposure time 5 minutes): <1 Log
